The text below walks through data of US20210113492A1, “METHOD FOR INHIBITING PROLIFERATION AND METASTASIS OF CANCER CELLS BY USING NAPHTHOQUINONE DERIVATIVE” (National Tsing Hua University, priority 2019, published 2021).

Test [1] has as its system human non-small cell lung carcinoma cells (H1299). Nature of the test: Boyden chamber invasion assay, H1299. The test is classed as cell-based. The following applies: 2.5, 5 and 10 μM, 24 h, dose dependency (FIG. 2C). The method, then: (§1) Cells were harvested by […] and resuspended in a serum-free medium with 0.1% BSA. Then, […] of cell suspension (2×10^5 cells) was seeded into the upper insert of SPLInsert with Polyethylene terephthalate (PET) membrane (pore size: 8.0 μm) (SPL Lifesciences, Korea) pre-coated with matrigel (BD Biosciences, San Jose, Calif.). The bottom well of 24-well plate of SPLInsert was filled with cell medium containing 10% FBS with different concentrations of isoplumbagin (5, 7.5 and 10 μM, Experimental group of oral squamous cell carcinoma cells (OC3-IV2); 2.5, 5 and 10 μM, Experimental groups of human primary glioblastoma cells (U87), human non-small cell lung carcinoma cells (H1299), human prostate cancer cells (PC3) and human cervical cancer cells (Hela)) or without isoplumbagin (DMSO added). […] Number of cells was counted using Image J. Relative invasion ability was calculated as cell number per area.
(§2) FIGS. 2A-2E show the inhibitory effect of different doses of isoplumbagin on invasion for oral squamous cell carcinoma cells (OC3-IV2), human primary glioblastoma cells (U87), human non-small cell lung carcinoma cells (H1299), prostate cancer cells (PC3) and cervical cancer cells (Hela) assessed with the Boyden chamber assays. *Compared with solvent control (DMSO). […]

The test system of test [2] is human prostate cancer cells (PC3). Nature of the test: Boyden chamber invasion assay, PC3. Format: cell-based. The note with it: 2.5, 5 and 10 μM, 24 h, dose dependency (FIG. 2D). The protocol: as §1, §2
For test [3], the system named is human primary glioblastoma cells (U87). Nature of the test: Mitochondrial morphology and distribution by immunofluorescence staining, U87. Format: cell-based. The note with it: 1 μM or 2.5 μM, 24 hours, anti-TOM20 staining. The protocol: (§3) The effects of isoplumbagin on mitochondrial morphology and distribution of OC3-IV2, U87, H1299 and PC3 cell lines were measured by immunofluorescence staining After OC3-IV2, U87, H1299, and PC3 cells were treated with DMSO, 1 μM, or 2.5 μM isoplumbagin for 24 hours, cells were fixed by 4% (v/v) paraformaldehyde and permeabilized by 0.1% (v/v) Triton X-100. Cells were incubated in blocking buffer containing 1% bovine serum albumin. After blocking, cells were incubated overnight with indicated primary antibodies against TOM20 (a mitochondria marker, sc-11415, Santa Cruz), and then incubated with Alexa Fluor 488-conjugated secondary antibodies (A11001, Invitrogen). Nucleus was stained with DAPI, actin was stained with rhodamine phalloidin (A12379, Invitrogen) and cells were mounted using Prolong Gold reagent (P36930, Invitrogen). 63 images were taken by LSM800 confocal microscopes (Zeiss).
(§4) FIGS. 5A-5D show the effect of isoplumbagin on mitochondrial morphogenesis and distribution of oral squamous cell carcinoma cells (OC3-IV2), human primary glioblastoma cells (U87), human non-small cell lung carcinoma cells (H1299) and human prostate cancer cells (PC3). Cells treated with either solvent control (DMSO) or isoplumbagin were determined by immunofluorescence staining using anti-TOM20 (mitochondria, green) antibody, rhodamine phalloidin (actin, red) and DAPI (nucleus, blue). […]

The subject of test [4] is OC3-IV2 cells. Nature of the test: Oral orthotopic OC3-IV2 xenograft mice model. The test is classed as in vivo, CB17/lcr-Prkdc^scid/CrlNarl mice. The note with it: 2 mg/kg intraperitoneal once every 3 days, day 0-18. The protocol: In this example, the anti-tumor effect of isoplumbagin in xenograft mice model was explored. In oral orthotopic xenograft CB17/lcr-Prkdc^scid/CrlNarl mice model, 1×10^6 OC3-IV2 cells were harvested and re-suspended in 100 μl PBS. The cells were injected through the oral buccal mucosa into six-week-old male CB17/lcr-Prkdc^scid/CrlNarl mice (National Laboratory Animal Center, Taiwan). When the tumor size in oral buccal reached approximately 25 mm^3 at 14 days after inoculation of the OC3-IV2 cells, mice were randomly assigned into two groups (n=3 per group): vehicle (DMSO) control group and 2 mg/kg isoplumbagin group. Treatments were given via intraperitoneal injection once every 3 days in the morning for 2 weeks. During this period, mice weights and tumor volumes (length×width^2/2) were recorded every 3 days. At the end of the study (on day 18), the mice were sacrificed by carbon dioxide asphyxiation. […]
FIGS. 7A-7D show the anti-tumor effect of isoplumbagin in xenograft mice model. […] Tumor volume (FIG. 7A) and body weight (FIG. 7B) were measured from day 0-18 after treatment. […]

The test system of test [5] is human prostate cancer cells (PC3). Nature of the test: Mitochondrial morphology and distribution by immunofluorescence staining, PC3. Format: cell-based. The note with it: 1 μM or 2.5 μM, 24 hours, anti-TOM20 staining. The protocol:
as §3, §4

In test [6] the test system is human cervical cancer cells (Hela). Put plainly: Boyden chamber invasion assay, Hela. The note with it: 2.5, 5 and 10 μM, 24 h, dose dependency (FIG. 2E). The test is classed as cell-based. The method, then:
as §1, §2

On to `CC1=CC(=O)c2cccc(O)c2C1=O` [isoplumbagin, 5-hydroxy-3-methyl-1,4-naphthoquinone], for which the “cancer cells migrating through the membrane (invasion)” value in test [1], in test [2] and in test [6] was “decrease significantly” in each case. For the same molecule, the “mitochondrial morphogenesis and distribution” value in test [3] was “can alter the mitochondrial morphogenesis and distribution”; in test [5], “can alter the mitochondrial morphogenesis and distribution”. In test [4], the “tumor growth (tumor volume, tumor weight)” value is given as “can effectively inhibit tumor growth”.
